Measured values as given in patent US9624209B2, “Substituted phenylureas and phenylamides as vanilloid receptor ligands” (Gruenenthal GmbH, priority 2009, dated 2017).

These compounds were tested against T1, vanilloid receptor 1 (VR1/TRPV1 receptor) (Homo sapiens, UniProt Q8NER1) (assay: VR1/TRPV1 receptor affinity, capsaicin stimulus (human)). Details: Tables 8-12.
T1 construct: expressed in transfected cells; host or cells: CHO K1 cells (ECACC), stably transfected
Format: cell-based, human being
Design: key to (f) Ki (human being) [nM] Cap: result in words: AG=agonist; pAG=partial agonist; NE=no effect

T1 sequence (Q8NER1 whole entry): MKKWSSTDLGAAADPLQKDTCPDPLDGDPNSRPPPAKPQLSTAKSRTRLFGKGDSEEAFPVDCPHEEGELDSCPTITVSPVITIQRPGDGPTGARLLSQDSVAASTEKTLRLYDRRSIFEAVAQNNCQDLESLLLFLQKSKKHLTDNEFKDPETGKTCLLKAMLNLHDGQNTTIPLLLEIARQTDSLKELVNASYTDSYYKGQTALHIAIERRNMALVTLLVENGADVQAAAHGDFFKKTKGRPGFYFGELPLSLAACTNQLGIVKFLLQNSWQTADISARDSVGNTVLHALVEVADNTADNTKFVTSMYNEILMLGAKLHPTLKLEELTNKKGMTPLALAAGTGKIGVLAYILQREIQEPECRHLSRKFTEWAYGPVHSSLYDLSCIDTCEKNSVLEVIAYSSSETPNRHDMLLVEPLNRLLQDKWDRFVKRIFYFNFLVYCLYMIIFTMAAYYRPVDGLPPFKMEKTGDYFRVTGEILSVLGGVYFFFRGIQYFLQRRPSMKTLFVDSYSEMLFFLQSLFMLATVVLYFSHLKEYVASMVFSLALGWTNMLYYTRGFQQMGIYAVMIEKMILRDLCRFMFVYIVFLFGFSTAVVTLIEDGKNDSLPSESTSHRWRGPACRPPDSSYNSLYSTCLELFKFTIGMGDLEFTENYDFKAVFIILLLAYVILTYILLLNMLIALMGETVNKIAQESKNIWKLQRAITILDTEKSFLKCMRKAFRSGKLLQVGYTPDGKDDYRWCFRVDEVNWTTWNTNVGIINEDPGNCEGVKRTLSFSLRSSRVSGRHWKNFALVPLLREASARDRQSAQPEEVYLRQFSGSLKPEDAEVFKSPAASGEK

(f) Ki (human being) [nM] Cap: result in words	Structure (SMILES)
AG	COc1ccc(NC(=O)NCc2cc(C(F)(F)F)nn2-c2cccc(Cl)c2)cc1O [Example A16, 1-[[2-(3-Chlorophenyl)-5-(trifluoromethyl)-2H-pyrazol-3-yl]-methyl]-3-(3-hydroxy-4-methoxy-phenyl)-urea]
AG	COCCOc1ccc(NC(=O)NCc2cc(C(C)(C)C)nn2-c2cccc(Cl)c2)cc1F [Example A17, 1-[[5-tert-Butyl-2-(3-chlorophenyl)-2H-pyrazol-3-yl]-methyl]-3-[3-fluoro-4-(2-methoxy-ethoxy)-phenyl]-urea]
AG	CC(C)(C)c1cc(CNC(=O)Nc2ccc(OCC(O)CO)c(F)c2)n(-c2cccc(Cl)c2)n1 (stereo not drawn) [Example A24, 1-[[5-tert-Butyl-2-(3-chlorophenyl)-2H-pyrazol-3-yl]-methyl]-3-[4-(2,3-dihydroxy-propoxy)-3-fluoro-phenyl]-urea]
AG	CC(C(=O)NCc1cc(C(C)(C)C)nn1-c1cccc(Cl)c1)c1ccc(CO)c(F)c1 (stereo not drawn) [Example A32, N-[[5-tert-Butyl-2-(3-chlorophenyl)-2H-pyrazol-3-yl]-methyl]-2-[3-fluoro-4-(hydroxymethyl)-phenyl]-propionamide]
AG	CC(C(=O)NCc1cc(C(C)(C)C)nn1-c1cccc(F)c1)c1ccc(CO)c(F)c1 (stereo not drawn) [Example A37, N-[[5-tert-Butyl-2-(3-fluorophenyl)-2H-pyrazol-3-yl]-methyl]-2-[3-fluoro-4-(hydroxymethyl)-phenyl]-propionamide]
AG	CC(C(=O)NCc1cc(C(C)(C)C)nn1-c1ccc(F)c(F)c1)c1ccc(CO)c(F)c1 (stereo not drawn) [Example A39, N-[[5-tert-Butyl-2-(3,4-difluoro-phenyl)-2H-pyrazol-3-yl]-methyl]-2-[3-fluoro-4-(hydroxymethyl)-phenyl]-propionamide]
AG	CC(C(=O)NCc1cc(C(C)(C)C)nn1-c1ccc(F)c(Cl)c1)c1ccc(CO)c(F)c1 (stereo not drawn) [Example A41, N-[[5-tert-Butyl-2-(3-chloro-4-fluoro-phenyl)-2H-pyrazol-3-yl]-methyl]-2-[3-fluoro-4-(hydroxymethyl)-phenyl]-propionamide]
AG	CC(C(=O)NCc1cc(C(C)(C)C)nn1-c1cccc(C(F)(F)F)c1)c1ccc(CO)c(F)c1 (stereo not drawn) [Example A47, N-[[5-tert-Butyl-2-[3-(trifluoromethyl)phenyl]-2H-pyrazol-3-yl]-methyl]-2-[3-fluoro-4-(hydroxymethyl)-phenyl]-propionamide]
AG	CC(C(=O)NCc1cc(C(F)(F)F)nn1-c1cccc(C(F)(F)F)c1)c1ccc(CO)c(F)c1 (stereo not drawn) [Example A48, 2-[3-Fluoro-4-(hydroxymethyl)-phenyl]-N-[[5-(trifluoromethyl)-2-[3-(trifluoromethyl)phenyl]-2H-pyrazol-3-yl]-methyl]-propionamide]
AG	COc1cc(C(C)C(=O)NCc2cc(C(C)(C)C)nn2-c2cccc(Cl)c2)ccc1CO (stereo not drawn) [Example A49, N-[[5-tert-Butyl-2-(3-chlorophenyl)-2H-pyrazol-3-yl]-methyl]-2-[4-(hydroxymethyl)-3-methoxy-phenyl]-propionamide]
AG	CC(O)c1ccc(C(C)C(=O)NCc2cc(C(C)(C)C)nn2-c2cccc(Cl)c2)cc1F (stereo not drawn) [Example A98, N-[[5-tert-Butyl-2-(3-chlorophenyl)-2H-pyrazol-3-yl]-methyl]-2-[3-fluoro-4-(1-hydroxy-ethyl)-phenyl]-propionamide]
AG	CC(C(=O)NCc1cc(C(C)(C)C)nn1-c1cccc(Cl)c1)c1ccc(CCO)c(F)c1 (stereo not drawn) [Example A139, N-[[5-tert-Butyl-2-(3-chlorophenyl)-2H-pyrazol-3-yl]-methyl]-2-[3-fluoro-4-(2-hydroxy-ethyl)-phenyl]-propionamide]
AG	CC(C)(C)c1cc(CNC(=O)Nc2ccc(CCO)c(F)c2)n(-c2cccc(Cl)c2)n1 [Example A140, 1-[[5-tert-Butyl-2-(3-chlorophenyl)-2H-pyrazol-3-yl]-methyl]-3-[3-fluoro-4-(2-hydroxy-ethyl)-phenyl]-urea]
AG	CC(C(=O)NCc1cc(C(C)(C)C)nn1-c1cccc(Cl)c1)c1ccc(C(O)CO)c(F)c1 (stereo not drawn) [Example A145, N-[[5-tert-Butyl-2-(3-chlorophenyl)-2H-pyrazol-3-yl]-methyl]-2-[4-(1,2-dihydroxy-ethyl)-3-fluoro-phenyl]-propionamide]
AG	CC(C(=O)NCc1cc(C(C)(C)C)nn1-c1cccc(Cl)c1)c1ccc(C(O)CO)cc1 (stereo not drawn) [Example A147, N-[[5-tert-Butyl-2-(3-chlorophenyl)-2H-pyrazol-3-yl]-methyl]-2-[4-(1,2-dihydroxy-ethyl)-phenyl]-propionamide]

Same assay, conditions: Tables 8-12, read-out: (f) Ki (human being) [nM] Cap

Structure (SMILES)	Ki [nM]
CC(C(=O)NCc1cc(C(F)(F)F)nn1-c1cccc(Cl)c1)c1ccc(CO)c(Cl)c1 (stereo not drawn) [Example A36, 2-[3-Chloro-4-(hydroxymethyl)-phenyl]-N-[[2-(3-chlorophenyl)-5-(trifluoromethyl)-2H-pyrazol-3-yl]-methyl]-propionamide]	0.3
CC(C(=O)NCc1cc(C(F)(F)F)nn1-c1cccc(Cl)c1)c1cc(F)c(CO)c(F)c1 (stereo not drawn) [Example A52, N-[[2-(3-Chlorophenyl)-5-(trifluoromethyl)-2H-pyrazol-3-yl]-methyl]-2-[3,5-difluoro-4-(hydroxymethyl)-phenyl]-propionamide]	40

Results, then the compound that gave them:

Ki [nM]	Structure (SMILES)
5	CC(C(=O)NCc1cc(C(F)(F)F)nn1-c1cccc(Cl)c1)c1ccc(CNS(C)(=O)=O)c(F)c1 (stereo not drawn) [Example B1, N-[[2-(3-Chlorophenyl)-5-(trifluoromethyl)-2H-pyrazol-3-yl]-methyl]-2-[3-fluoro-4-(methanesulfonamido-methyl)-phenyl]-propionamide]
2.4	CC(C(=O)NCc1cc(C(F)(F)F)nn1-c1ccc(F)c(Cl)c1)c1ccc(CNS(C)(=O)=O)c(F)c1 (stereo not drawn) [Example B2, N-[[2-(3-Chloro-4-fluoro-phenyl)-5-(trifluoromethyl)-2H-pyrazol-3-yl]-methyl]-2-[3-fluoro-4-(methanesulfonamido-methyl)-phenyl]-propionamide]
3	CC(C(=O)NCc1cc(C(C)(C)C)nn1-c1ccc(F)c(Cl)c1)c1ccc(CNS(C)(=O)=O)c(F)c1 (stereo not drawn) [Example B3, N-[[5-tert-Butyl-2-(3-chloro-4-fluoro-phenyl)-2H-pyrazol-3-yl]-methyl]-2-[3-fluoro-4-(methanesulfonamido-methyl)-phenyl]-propionamide]
9	CC(C(=O)NCc1cc(C(F)(F)F)nn1-c1cccc(Cl)c1)c1ccc(CNS(C)(=O)=O)cc1 (stereo not drawn) [Example B5, N-[[2-(3-Chlorophenyl)-5-(trifluoromethyl)-2H-pyrazol-3-yl]-methyl]-2-[4-(methanesulfonamido-methyl)-phenyl]-propionamide]
7	CC(C(=O)NCc1cc(C(C)(C)C)nn1-c1cccc(Cl)c1)c1ccc(CNS(C)(=O)=O)cc1 (stereo not drawn) [Example B6, N-[[5-tert-Butyl-2-(3-chlorophenyl)-2H-pyrazol-3-yl]-methyl]-2-[4-(methanesulfonamido-methyl)-phenyl]-propionamide]
7	CC(C(=O)NCc1cc(C(F)(F)F)nn1-c1cccc(F)c1)c1ccc(CNS(C)(=O)=O)c(F)c1 (stereo not drawn) [Example B7, 2-[3-Fluoro-4-(methanesulfonamido-methyl)-phenyl]-N-[[2-(3-fluorophenyl)-5-(trifluoromethyl)-2H-pyrazol-3-yl]-methyl]-propionamide]
1	CC(C(=O)NCc1cc(C(F)(F)F)nn1-c1cccc(C(F)(F)F)c1)c1ccc(CNS(C)(=O)=O)c(F)c1 (stereo not drawn) [Example B8, 2-[3-Fluoro-4-(methanesulfonamido-methyl)-phenyl]-N-[[5-(trifluoromethyl)-2-[3-(trifluoromethyl)phenyl]-2H-pyrazol-3-yl]-methyl]-propionamide]
6	CC(C(=O)NCc1cc(C(C)(C)C)nn1-c1cccc(F)c1)c1ccc(CNS(C)(=O)=O)c(F)c1 (stereo not drawn) [Example B9, N-[[5-tert-Butyl-2-(3-fluorophenyl)-2H-pyrazol-3-yl]-methyl]-2-[3-fluoro-4-(methanesulfonamido-methyl)-phenyl]-propionamide]
6	CC(C(=O)NCc1cc(C(C)(C)C)nn1-c1ccc(F)c(F)c1)c1ccc(CNS(C)(=O)=O)c(F)c1 (stereo not drawn) [Example B10, N-[[5-tert-Butyl-2-(3,4-difluoro-phenyl)-2H-pyrazol-3-yl]-methyl]-2-[3-fluoro-4-(methanesulfonamido-methyl)-phenyl]-propionamide]
9	COc1cc(NC(=O)NCc2cc(C(C)(C)C)nn2-c2cccc(Cl)c2)ccc1CNS(C)(=O)=O [Example B11, 1-[[5-tert-Butyl-2-(3-chlorophenyl)-2H-pyrazol-3-yl]-methyl]-3-[4-(methanesulfonamido-methyl)-3-methoxy-phenyl]-urea]
41	COc1cc(NC(=O)NCc2cc(C(F)(F)F)nn2-c2cccc(Cl)c2)ccc1CNS(C)(=O)=O [Example B12, 1-[[2-(3-Chlorophenyl)-5-(trifluoromethyl)-2H-pyrazol-3-yl]-methyl]-3-[4-(methanesulfonamido-methyl)-3-methoxy-phenyl]-urea]
1	CC(C(=O)NCc1cc(C(C)(C)C)nn1-c1cccc(Cl)c1)c1ccc(CNS(C)(=O)=O)c(Cl)c1 (stereo not drawn) [Example B13, N-[[5-tert-Butyl-2-(3-chlorophenyl)-2H-pyrazol-3-yl]-methyl]-2-[3-chloro-4-(methanesulfonamido-methyl)-phenyl]-propionamide]
64	CNCc1ccc(NC(=O)NCc2cc(C(F)(F)F)nn2-c2cccc(Cl)c2)cc1 [Example B14, 1-[[2-(3-Chlorophenyl)-5-(trifluoromethyl)-2H-pyrazol-3-yl]-methyl]-3-[4-(methylamino-methyl)-phenyl]-urea]
